Laboratory results: patent publication US10017463B2, “Inhibitors of deubiquitinating proteases” (Brandeis University, priority 2014, dated 2018)
Like-named read-outs stand apart in the source and are kept apart here. Values belong to the compound of their own block, whether it stands above or below them.

Key:
[1] = molecular target: T1, cathepsin C (Mus musculus, UniProt P97821); assay: Cathepsin C inhibition (Gly-Phe-AMC); type: biochemical; settings: for EC50 for cathepsin C inhibition: 30 min preincubation, substrate 150 μM
T1 construct: Mouse full length cathepsin C was from RnD systems; purchased RnD systems (Minneapolis, Minn.)
Protocol: Panel A is a plot showing the KM calculation for cathepsin C and substrate, Gly-Phe-AMC. Panel B is a plot showing Cathepsin C was incubated with the stated compound for 30 min prior to addition of substrate and residual activity was measured. Panel C is a plot showing the EC50 values calculated from Panel B.
Cathepsin C is an enzyme important in inflammation. […] The assay was undertaken by incubating the enzyme in the presence of compound for 30 min, then adding substrate (150 μM; kM=75 μM) and measuring residual activity. […] TCM41, TCM42, TCM58, TCM43, and TCM97 (FIG. 12). […] Furthermore, substitution in the 3-position of the aniline function appeared to be more favored than 4-substitution (TCM97 vs TCM41). However substitution on the phenyl ester function was much less important for inhibition, with chloro, fluoro and proton all giving similar inhibition potencies.

[2] = system: G76VUb-GFP in COS1 cells; assay: UbG76V-GFP proteasome assay in COS1 cells; type: cell-based; settings: COS1, 8 h
Protocol: COS1 cells at approx. 75% confluence in a 48 well plate were transiently transfected with a plasmid encoding G76VUb-GFP using Mirus 2020 reagent. After this time media with either compound in DMSO or 1% DMSO was added to the cells and the cells were incubated for 8 h. After this time, cells were trypsinized, diluted with 1% FBS in PBS (FACS buffer) then centrifuged at 700 g. After this time cells on ice were treated with FACS buffer containing propidium iodide (0.05 mg/mL). The GFP (indicating proteasome activity) and red fluorescence (dye exclusion showing acute toxicity) were subsequently measured by FACS.

[3] = molecular target: T2, USP9x (Homo sapiens, UniProt Q93008); assay: HA-Ubiquitin-Vinylsulfone activity profiling in K562 lysates; type: biochemical
T2 construct: Lysate labeling assay on untransfected cells; endogenous in cells; host or cells: K562
Protocol: Panel B is an image of an immunoblot showing the titration of TCM23 and TCM28 in K562 lysates. Panel C is a plot showing the quantitation of band corresponding to USP9x in panel B. Panel D is an image of an immunoblot showing the titration of WP1130 in K562 lysates. Panel E is a plot showing the quantification of the efficacy of ITCs for the inhibition of USP9x in K562 lysates (see also Table 2).
[…] After this time HA-Ub-VS (1.5 μM) was added and incubated for 15 min. After this time reaction mixture (15 μL) was removed and quenched in 2× (final concentration) reducing Laemeli buffer. The reaction mixtures were heated to 37° C. for 10 min prior to analysis by western blot for HA.

[4] = system: 3T3; assay: Proliferation assay, 3T3; settings: read-out: EC50 3T3; WP1130, time not stated
[5] = system: DUBs other than USP9x, most notably UCHL5; assay: HA-Ubiquitin-Vinylsulfone activity profiling, other DUBs; type: biochemical
Protocol: Lysate labeling assay on untransfected cells (1.5 mg/mL lysate lysed using a Dounce homogenizer, 10 strokes, in 75 mM potassium phosphate pH 7.6, 150 mM NaCl, 0.75 mM BME) was run with the stated concentration of inhibitor (or 1% DMSO control) for 30 min. After this time HA-Ub-VS (1.5 μM) was added and incubated for 15 min. After this time reaction mixture (15 μL) was removed and quenched in 2× (final concentration) reducing Laemeli buffer. The reaction mixtures were heated to 37° C. for 10 min prior to analysis by western blot for HA. […] EC50s calculated by this method were in agreement with those found in the HA-blot.

[6] = system: HeLa; assay: Proliferation assay, HeLa; settings: read-out: EC50 HeLa
Protocol: (§2) Proliferation assays for adherent cells were conducted by plating cells at 5%-10% confluence in 96 well plates together with compound or 0.1% DMSO. Cells were allowed to grow for 48 h and then Alamar Blue® was added and number of cells was measured by fluorescence on a microplate reader.

[7] = system: MCF7; assay: Proliferation assay, MCF7; settings: read-out: EC50 MCF7
Protocol: as §2

[8] = system: B16-F10; assay: Proliferation assay, B16-F10; settings: read-out: EC50 B16-F10; WP1130, time not stated
[9] = system: MCL-1; assay: MCL-1 immunoblot in BaF3/p210 cells; type: cell-based, murine; settings: 4 h
Protocol: (§1) Panel A is the chemical structure of TU71. Panel B is an image of an immunoblot showing a K562 cell was treated with TU71 for 15 min at which time HAUb-VS was added. After an additional 15 min, aliquots were quenched in reducing loading buffer and analyzed by SDS-PAGE and HA blot. […] BaF3/p21 0 cells were treated with TU71 for 2.5 h (Panel C) or 4 h (Panel D). Cells were harvested, lysed and incubated (0.7 mg/mL protein) with 250 nM Cy5-UbVME for 5 min at 37° C. […] Panel E is an image of an immunoblot showing BaF3/p210 cells were incubated with TU71 for 4 h. The cells were harvested, lysed, analyzed by SDS-PAGE and immunoblotted as indicated. “cPARP” indicates the caspase cleavage of product of PARP and is indicative of apoptosis. Panel F is a bar graph showing data representative of mean±range of two independent experiments, one performed in duplicate of the blot depicted in Panel E.

[10] = system: BaF3/p210 cells; assay: Proliferation assay (Alamar Blue), BaF3/p210; type: cell-based, murine
Excerpt: This cell line consists of engineered murine leukemia cells that ectopically express Bcr-Abl. Parent BaF3 cells require exogenous interleukin 3 (IL3) because IL3 stimulates expression of MCL1, which is required for survival. However, BaF3/p210 cells require no exogenous interleukins but need Bcr-Abl for survival.

[11] = system: DUBs; assay: Cy5-Ub-VME activity profiling of treated BaF3/p210 cells; type: cell-based, murine; settings: TU71 for 2.5 h or 4 h
Protocol: FIG. 9 has two panels (A and B) depicting data showing that TUs inhibit DUBs in cells. BaF3/p210 cells were incubated with the stated concentration of compound for 4 h. After this time cells were lysed using beads, lysates were normalized, then exposed to Cy5-Ub-VME for 5 min. After quenching, lysates were resolved by SDS-PAGE, analyzed on typhoon, then stained by Coomassie. Panel A is an image of the SDS-PAGE gel visualized via Typhoon imager. Panel B is an image of the SDS PAGE gel stained with Coomassie.
as §1
The increased promiscuity of the inhibitors when the experiment is carried out in cells likely stems from the increased assay time (4 h vs 20 min) coupled with the slow on rates of the inhibitors and their targets.

[12] = system: BaF3/p210 cells; assay: Apoptosis (cPARP) in BaF3/p210 cells; type: cell-based, murine; settings: 4 h
Protocol: as §1

[13] = HA-Ub-VS profiling, values in text, read-out: EC50 for USP9x
[14] = inhibition of USP9x in K562 lysates, data from FIG. 1, read-out: EC50

T2 sequence (Q93008 whole entry): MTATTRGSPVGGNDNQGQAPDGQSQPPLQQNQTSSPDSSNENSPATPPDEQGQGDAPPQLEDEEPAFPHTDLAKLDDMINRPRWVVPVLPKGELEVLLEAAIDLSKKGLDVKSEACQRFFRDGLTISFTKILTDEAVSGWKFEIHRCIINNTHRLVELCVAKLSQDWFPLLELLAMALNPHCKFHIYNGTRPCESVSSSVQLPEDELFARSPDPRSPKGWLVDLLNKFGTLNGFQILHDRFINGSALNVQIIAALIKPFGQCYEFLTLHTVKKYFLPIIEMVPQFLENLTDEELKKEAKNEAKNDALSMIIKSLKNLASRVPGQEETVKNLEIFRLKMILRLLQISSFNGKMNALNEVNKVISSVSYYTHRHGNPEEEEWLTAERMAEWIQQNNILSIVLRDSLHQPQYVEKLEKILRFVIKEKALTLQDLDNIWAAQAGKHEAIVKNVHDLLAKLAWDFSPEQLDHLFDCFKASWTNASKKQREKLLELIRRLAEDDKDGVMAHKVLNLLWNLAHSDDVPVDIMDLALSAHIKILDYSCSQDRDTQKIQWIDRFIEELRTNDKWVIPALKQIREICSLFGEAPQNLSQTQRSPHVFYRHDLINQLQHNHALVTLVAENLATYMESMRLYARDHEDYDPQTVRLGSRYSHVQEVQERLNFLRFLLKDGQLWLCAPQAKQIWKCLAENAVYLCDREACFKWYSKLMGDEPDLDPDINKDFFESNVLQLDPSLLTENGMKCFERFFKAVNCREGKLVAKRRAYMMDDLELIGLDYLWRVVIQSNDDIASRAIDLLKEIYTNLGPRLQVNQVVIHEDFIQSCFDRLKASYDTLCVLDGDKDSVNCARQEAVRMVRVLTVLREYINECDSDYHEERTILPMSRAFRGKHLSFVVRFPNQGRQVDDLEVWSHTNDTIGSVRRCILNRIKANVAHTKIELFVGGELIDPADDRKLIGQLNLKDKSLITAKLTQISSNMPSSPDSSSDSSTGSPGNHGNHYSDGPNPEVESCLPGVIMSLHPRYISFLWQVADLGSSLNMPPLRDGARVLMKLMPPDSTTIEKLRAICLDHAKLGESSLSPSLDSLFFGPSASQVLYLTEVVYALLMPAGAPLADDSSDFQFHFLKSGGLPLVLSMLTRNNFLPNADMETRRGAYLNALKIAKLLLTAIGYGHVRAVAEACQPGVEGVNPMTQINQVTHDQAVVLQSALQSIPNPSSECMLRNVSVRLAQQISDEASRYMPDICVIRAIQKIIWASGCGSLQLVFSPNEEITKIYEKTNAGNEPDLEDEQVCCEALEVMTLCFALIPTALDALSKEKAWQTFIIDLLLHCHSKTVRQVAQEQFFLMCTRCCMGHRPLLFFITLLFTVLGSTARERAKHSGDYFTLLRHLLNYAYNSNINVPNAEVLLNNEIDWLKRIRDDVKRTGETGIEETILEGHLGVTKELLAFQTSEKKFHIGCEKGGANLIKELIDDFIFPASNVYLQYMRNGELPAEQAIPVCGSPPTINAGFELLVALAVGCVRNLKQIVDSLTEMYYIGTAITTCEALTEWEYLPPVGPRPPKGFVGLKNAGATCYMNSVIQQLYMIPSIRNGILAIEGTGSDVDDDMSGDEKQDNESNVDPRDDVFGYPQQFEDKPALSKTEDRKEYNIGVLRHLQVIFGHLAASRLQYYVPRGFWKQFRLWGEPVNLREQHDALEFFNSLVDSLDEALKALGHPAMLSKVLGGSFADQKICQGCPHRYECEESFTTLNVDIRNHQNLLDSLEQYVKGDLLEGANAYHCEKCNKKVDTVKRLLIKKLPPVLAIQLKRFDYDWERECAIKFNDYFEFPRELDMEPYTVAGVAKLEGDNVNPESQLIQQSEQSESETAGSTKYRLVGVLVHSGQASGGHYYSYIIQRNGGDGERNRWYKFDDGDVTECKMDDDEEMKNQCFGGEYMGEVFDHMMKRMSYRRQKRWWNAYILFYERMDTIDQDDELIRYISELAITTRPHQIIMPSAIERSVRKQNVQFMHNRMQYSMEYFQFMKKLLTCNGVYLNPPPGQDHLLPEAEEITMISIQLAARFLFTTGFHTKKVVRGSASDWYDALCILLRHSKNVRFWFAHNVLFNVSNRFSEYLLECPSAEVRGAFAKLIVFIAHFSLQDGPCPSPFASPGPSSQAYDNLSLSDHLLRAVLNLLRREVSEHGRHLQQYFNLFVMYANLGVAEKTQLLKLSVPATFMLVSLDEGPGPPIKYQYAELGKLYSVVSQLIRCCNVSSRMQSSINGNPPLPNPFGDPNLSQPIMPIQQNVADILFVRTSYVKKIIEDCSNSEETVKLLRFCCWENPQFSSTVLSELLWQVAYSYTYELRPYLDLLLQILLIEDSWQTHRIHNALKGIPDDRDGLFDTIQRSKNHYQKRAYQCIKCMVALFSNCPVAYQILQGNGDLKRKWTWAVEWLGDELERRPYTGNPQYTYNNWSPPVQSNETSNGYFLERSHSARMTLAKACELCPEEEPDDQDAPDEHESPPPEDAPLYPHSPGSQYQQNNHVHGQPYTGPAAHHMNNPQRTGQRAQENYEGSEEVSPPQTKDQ
T1 sequence (P97821 231-393 limits assumed): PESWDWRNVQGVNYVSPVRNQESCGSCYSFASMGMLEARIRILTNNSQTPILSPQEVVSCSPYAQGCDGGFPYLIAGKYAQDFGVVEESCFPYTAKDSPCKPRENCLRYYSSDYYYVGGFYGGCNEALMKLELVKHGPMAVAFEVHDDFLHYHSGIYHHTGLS
T1 sequence (P97821 25-134 limits assumed): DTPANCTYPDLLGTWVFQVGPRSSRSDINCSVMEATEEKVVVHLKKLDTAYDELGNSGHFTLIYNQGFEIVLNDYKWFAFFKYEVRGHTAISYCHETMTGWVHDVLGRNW
T1 sequence (P97821 394-462 limits assumed): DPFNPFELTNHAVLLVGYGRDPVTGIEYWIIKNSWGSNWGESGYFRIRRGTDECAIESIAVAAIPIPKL

relative potency as cathepsin C inhibitor [1]: most potent inhibitor
EC50 for cathepsin C inhibition [1]: low micromolar range
Compound: CN(C)c1ccc(N(C(=S)Oc2ccccc2)C(=S)Oc2ccccc2)cc1 [TCM43]

Compound: CC(C)C[C@H](NC(=O)[C@H](Cc1ccccc1)NC(=O)c1cnccn1)B(O)O [Bortezomib, reference compound]
GFP signal [2]: two-fold increase in GFP signal

Compound: S=C=Nc1ccccc1 [TU76]
EC50 [3, 13]: > 50 µM
EC50 [3, 14]: 131 µM

Compound: N#Cc1cc(F)cc(N=C=S)c1 [TU74]
EC50 [3, 14]: 22 µM

Compound: O=[N+]([O-])c1ccc(N=C=S)cc1 [TU79]
EC50 [3, 14]: 11 µM

EC50 for cathepsin C inhibition [1]: low micromolar range
Compound: CC(C)(C)OC(=O)NCc1ccc(N(C(=S)Oc2ccccc2)C(=S)Oc2ccccc2)cc1 [TCM41]

EC50 for cathepsin C inhibition [1]: low micromolar range
Compound: CC(C)(C)OC(=O)NCc1cccc(N(C(=S)Oc2ccccc2)C(=S)Oc2ccccc2)c1 [TCM97]

EC50 for cathepsin C inhibition [1]: low micromolar range
Compound: CC(C)(C)OC(=O)NCc1ccc(N(C(=S)Oc2ccc(Cl)cc2)C(=S)Oc2ccc(Cl)cc2)cc1 [TCM40]

EC50 for cathepsin C inhibition [1]: low micromolar range
Compound: CC(C)(C)OC(=O)NCc1ccc(N(C(=S)Oc2ccc(F)cc2)C(=S)Oc2ccc(F)cc2)cc1 [TCM58]

EC50 [3, 13]: 3 µM
EC50 [6]: 3 µM
EC50 [7]: 3 µM
EC50 [8]: 3 µM
Compound: CCC[C@H](NC(=O)/C(C#N)=C/c1cccc(Br)n1)c1ccccc1 [WP1130, reference compound]
EC50 [4]: 3 µM
inhibition of other USPs ([5]; conditions as for USP9x EC50): also inhibited

Compound: CC(C)(C)OC(=O)NCCc1cccc(N=C=S)c1 [TU71]
level of MCL-1 [9]: decreases the level
growth inhibition of BaF3/p210 cells [10]: did not show a significant growth inhibition until very high concentrations
inhibition of other DUBs other than USP9x ([5]; at 85 μM): weak inhibition
inhibition of other DUBs ([5]; below 25 μM): little inhibition
EC50 [3, 13]: 6 to 12 µM
EC50 ([3]; K562 treated with TU71 for 15 min, then HAUb-VS 15 min (FIG. 13), read-out: EC50 for USP9x inhibition): 20 ± 1 µM
EC50 [3, 14]: 9 µM
DUB inhibition in cells [11]: inhibits DUBs
apoptosis [12]: initiates apoptosis

Compound: Cc1cccc(N=C=S)c1 [TU70]
EC50 [3, 13]: > 50 µM
EC50 [3, 14]: 61 µM

EC50 for cathepsin C inhibition [1]: low micromolar range
Compound: Cc1ccc(OC(=S)N(C(=S)Oc2ccc(C)cc2)c2ccc(CNC(=O)OC(C)(C)C)cc2)cc1 [TCM42]

Compound: Fc1cccc(N=C=S)c1 [TU81]
EC50 [3, 14]: 20 µM
